Measured values from ChEMBL document CHEMBL1127947, “Synthesis and evaluation of n-substituted 1-(5-fluoro-2-pyrimidinyl)piperazine derivatives as potential anti-ischemic agents” (Bioorg Med Chem Lett, 1994).

Experiments:
[1] = test system: Rattus norvegicus; assay: In vivo neuroprotective activity to block nitrogen (N2) lethality in male Dawley rats by ip administration at a dose of 100 mg/kg; assay type: functional; settings: route intraperitoneal
[2] = molecular target: T1, 5-hydroxytryptamine receptor 1A (Rattus norvegicus, UniProt P19327); assay: In vitro binding affinity towards serotonin 5-HT1A receptor by the displacement of [3H]8-OH-DPAT from rat hippocampus; assay type: tissue-based
T1 sequence (P19327 whole entry): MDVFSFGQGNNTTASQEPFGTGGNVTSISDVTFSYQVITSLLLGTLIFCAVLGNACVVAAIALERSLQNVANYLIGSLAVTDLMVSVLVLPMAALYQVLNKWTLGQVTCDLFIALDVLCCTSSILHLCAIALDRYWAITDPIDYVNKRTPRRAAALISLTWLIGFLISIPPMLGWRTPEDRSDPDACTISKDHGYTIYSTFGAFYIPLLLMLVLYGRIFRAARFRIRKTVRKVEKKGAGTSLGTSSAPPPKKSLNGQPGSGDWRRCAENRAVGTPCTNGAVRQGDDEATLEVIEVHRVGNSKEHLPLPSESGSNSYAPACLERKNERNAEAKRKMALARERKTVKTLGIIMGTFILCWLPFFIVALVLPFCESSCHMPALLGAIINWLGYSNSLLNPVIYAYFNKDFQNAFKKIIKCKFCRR

[3] = molecular target: 5-hydroxytryptamine receptor 2A (Rattus norvegicus, UniProt P14842); assay: In vitro binding affinity towards serotonin 5-HT2A receptor by the displacement of [3H]spiperone from rat cortical membranes; assay type: cell membranes, Membrane
[4] = test system: Rattus norvegicus; assay: In vivo neuroprotective activity to block nitrogen (N2) lethality in male Dawley rats by ip administration at a dose of 40 mg/kg; assay type: functional; settings: route intraperitoneal
[5] = test system: Rattus norvegicus; assay: In vivo neuroprotective activity to block nitrogen (N2) lethality in male Dawley rats by ip administration at a dose of 50/100 mg/kg; assay type: functional
[6] = test system: Rattus norvegicus; assay: In vivo neuroprotective activity to block nitrogen (N2) lethality in male Dawley rats by ip administration at a dose of 20 mg/kg; assay type: functional; settings: route intraperitoneal
[7] = test system: Rattus norvegicus; assay: In vivo neuroprotective activity to block nitrogen (N2) lethality in male Dawley rats by ip administration at a dose of 80 mg/kg; assay type: functional; settings: route intraperitoneal

5-hydroxytryptamine receptor 2A, sequence (P14842 whole entry): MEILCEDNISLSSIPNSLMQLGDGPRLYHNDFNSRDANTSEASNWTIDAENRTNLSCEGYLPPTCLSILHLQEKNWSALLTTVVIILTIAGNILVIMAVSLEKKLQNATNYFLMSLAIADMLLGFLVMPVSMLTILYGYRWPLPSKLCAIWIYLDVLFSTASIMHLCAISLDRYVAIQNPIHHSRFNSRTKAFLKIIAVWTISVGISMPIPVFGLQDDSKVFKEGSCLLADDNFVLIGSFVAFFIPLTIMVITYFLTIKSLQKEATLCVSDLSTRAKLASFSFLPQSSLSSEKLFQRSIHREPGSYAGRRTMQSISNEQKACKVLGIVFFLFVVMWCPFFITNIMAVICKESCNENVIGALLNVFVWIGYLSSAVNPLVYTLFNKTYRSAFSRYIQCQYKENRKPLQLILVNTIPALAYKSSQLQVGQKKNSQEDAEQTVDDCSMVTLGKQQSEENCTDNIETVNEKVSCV

Row | SMILES | IC50 [2] | IC50 [3] | Protection [4] | further results
1 | OC(CCCN1CCN(c2ncc(F)cn2)CC1)c1ccc(F)c2ccccc12 (configuration not stated) | 0.562 µM | 1.01 µM | – | Protection [1]: 100%
2 | NC(CCCN1CCN(c2ncc(F)cn2)CC1)c1ccc(F)c2ccccc12 (configuration not stated) | 0.345 µM | – | 38% | –
3 | OC(CCCN1CCN(c2ncc(F)cn2)CC1)c1ccc(F)cc1 (configuration not stated) [BMY-14802] | – | 1.7 µM | – | Protection [5]: 63%
4 | OC(CCCN1CCN(c2ncc(F)cn2)CC1)(c1ccc(F)cc1)C1CCCCC1 (configuration not stated) | 0.05 µM | 0.336 µM | 75% | –
5 | NC(CCCN1CCN(c2ncc(F)cn2)CC1)C1CCCCC1 (configuration not stated) | 0.257 µM | – | – | Protection [6]: 50%
6 | O=C(OC(CCCN1CCN(c2ncc(F)cn2)CC1)c1ccc(F)cc1)c1ccccc1 (configuration not stated) | 0.581 µM | – | – | Protection [7]: 63%
7 | CC(=O)OC(CCCN1CCN(c2ncc(F)cn2)CC1)c1ccc(F)cc1 (configuration not stated) | 0.046 µM | 0.504 µM | – | Protection [7]: 100%
8 | Fc1ccc(CCCCN2CCN(c3ncc(F)cn3)CC2)cc1 | 0.071 µM | 0.212 µM | 75% | –
9 | O=S(=O)(CCCN1CCN(c2ncc(F)cn2)CC1)c1ccc(F)cc1 | 0.461 µM | – | 25% | –
10 | Fc1cnc(N2CCN(CCCCc3ccc(F)c4ccccc34)CC2)nc1 | 0.414 µM | 0.59 µM | – | Protection [6]: 100%
11 | O=S(=O)(NC(CCCN1CCN(c2ncc(F)cn2)CC1)c1ccc(F)cc1)c1ccc(F)cc1 (configuration not stated) | 1.81 µM | 3.4 µM | – | Protection [7]: 100%
12 | O=C(NC(CCCN1CCN(c2ncc(F)cn2)CC1)C1CCCCC1)c1ccc(F)cc1 (configuration not stated) | – | 0.76 µM | – | Protection [6]: 50%
13 | O=S(=O)(NC(CCCN1CCN(c2ncc(F)cn2)CC1)C1CCCCC1)c1ccc(F)cc1 (configuration not stated) | – | 0.76 µM | – | Protection [6]: 50%
14 | O=C(NC(CCCN1CCN(c2ncc(F)cn2)CC1)c1ccc(F)cc1)c1ccc(F)cc1 (configuration not stated) | 0.106 µM | 0.468 µM | 88% | –
15 | Fc1cnc(N2CCN(CCCCC3CCCCC3)CC2)nc1 | 0.315 µM | – | – | Protection [7]: 75%
16 | O=S(=O)(NC(CCCN1CCN(c2ncc(F)cn2)CC1)c1ccc(F)c2ccccc12)c1ccc(F)cc1 (configuration not stated) | – | – | 38% | –
17 | OC(CCCN1CCN(c2ncc(F)cn2)CC1)C1CCCCC1 (configuration not stated) | 0.03 µM | – | 100% | –
18 | Fc1ccc(SCCCN2CCN(c3ncc(F)cn3)CC2)cc1 | 0.129 µM | – | 13% | –
19 | Fc1ccc(OCCCN2CCN(c3ncc(F)cn3)CC2)cc1 | 0.145 µM | 0.141 µM | 25% | –
20 | CC(=O)NC(CCCN1CCN(c2ncc(F)cn2)CC1)c1ccc(F)cc1 (configuration not stated) | 0.289 µM | – | 13% | –
